The values below come from ChEMBL document CHEMBL1143629, “Synthesis and antibacterial activity of 1-(2-fluorovinyl)-7-substituted-4-quinolone-3-carboxylic acid derivatives, conformationally restricted analogues of fleroxacin” (J Med Chem, 2005).

For one assay, the system named is Streptococcus pneumoniae. The assay can be described thus: In vitro minimum inhibitory concentration against Streptococcus pneumoniae type III. It counts as functional.
Another assay has as its system Escherichia coli. The assay is described as follows: In vitro minimum inhibitory concentration against Escherichia coli NIHJ JC-2. It counts as functional.
The target in a further assay is DNA gyrase (Staphylococcus aureus, UniProt P0A0K8+P20831). The assay can be described thus: Inhibitory concentration against DNA gyrase of Staphylococcus aureus. It counts as protein-complex assay.
A further assay concerns Staphylococcus aureus. The assay is described as follows: In vitro minimum inhibitory concentration against Staphylococcus aureus Smith. It counts as functional.
Another assay relates to Pseudomonas aeruginosa. The assay is described as follows: In vitro minimum inhibitory concentration against Pseudomonas aeruginosa IID1210. The assay is classed as functional.

Converted amounts (≈) assume the structure as drawn. Bounds are passed on as bounds.

DNA gyrase, sequence (P0A0K8 whole entry): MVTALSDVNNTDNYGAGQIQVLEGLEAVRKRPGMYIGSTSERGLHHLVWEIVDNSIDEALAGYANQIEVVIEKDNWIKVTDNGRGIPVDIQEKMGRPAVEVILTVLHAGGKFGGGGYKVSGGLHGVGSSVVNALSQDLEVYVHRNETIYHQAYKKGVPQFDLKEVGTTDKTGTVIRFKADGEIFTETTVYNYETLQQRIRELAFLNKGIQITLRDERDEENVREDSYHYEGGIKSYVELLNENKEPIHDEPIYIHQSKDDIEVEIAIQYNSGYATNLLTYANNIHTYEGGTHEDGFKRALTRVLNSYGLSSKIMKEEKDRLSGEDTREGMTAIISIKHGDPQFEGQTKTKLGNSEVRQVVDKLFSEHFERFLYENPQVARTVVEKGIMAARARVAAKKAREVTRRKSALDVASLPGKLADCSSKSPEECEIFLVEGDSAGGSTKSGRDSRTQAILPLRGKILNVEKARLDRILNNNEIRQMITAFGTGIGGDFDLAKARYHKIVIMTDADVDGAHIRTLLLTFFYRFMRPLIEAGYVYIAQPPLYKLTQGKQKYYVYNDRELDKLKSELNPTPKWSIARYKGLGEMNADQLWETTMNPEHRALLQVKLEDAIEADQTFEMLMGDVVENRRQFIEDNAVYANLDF
DNA gyrase, sequence (P20831 whole entry): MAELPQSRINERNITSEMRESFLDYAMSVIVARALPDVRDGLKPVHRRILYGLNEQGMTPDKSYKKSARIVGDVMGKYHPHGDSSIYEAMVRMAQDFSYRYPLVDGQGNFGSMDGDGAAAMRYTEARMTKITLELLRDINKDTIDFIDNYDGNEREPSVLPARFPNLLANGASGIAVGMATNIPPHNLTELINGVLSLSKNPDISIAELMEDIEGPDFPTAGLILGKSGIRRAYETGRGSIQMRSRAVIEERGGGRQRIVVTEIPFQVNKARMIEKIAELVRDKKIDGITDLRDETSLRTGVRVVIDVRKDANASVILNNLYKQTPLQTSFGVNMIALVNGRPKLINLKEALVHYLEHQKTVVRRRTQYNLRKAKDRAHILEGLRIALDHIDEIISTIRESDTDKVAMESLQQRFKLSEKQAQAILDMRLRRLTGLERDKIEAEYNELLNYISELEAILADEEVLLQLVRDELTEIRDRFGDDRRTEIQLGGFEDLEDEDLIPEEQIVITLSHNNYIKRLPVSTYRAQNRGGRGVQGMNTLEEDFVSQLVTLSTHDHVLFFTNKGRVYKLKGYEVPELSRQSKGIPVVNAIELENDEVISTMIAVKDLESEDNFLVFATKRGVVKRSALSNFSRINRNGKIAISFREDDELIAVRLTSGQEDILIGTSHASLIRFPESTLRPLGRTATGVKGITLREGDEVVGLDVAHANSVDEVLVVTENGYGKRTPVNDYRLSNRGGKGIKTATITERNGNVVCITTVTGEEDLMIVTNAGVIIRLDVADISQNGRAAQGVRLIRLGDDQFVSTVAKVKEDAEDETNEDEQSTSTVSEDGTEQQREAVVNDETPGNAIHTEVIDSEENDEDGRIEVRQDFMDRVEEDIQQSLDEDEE

Turning to `CN1CCN(c2c(F)cc3c(=O)c(C(=O)O)cn(CCF)c3c2F)CC1` [FLEROXACIN], the MIC (usually the least concentration at which growth counts as inhibited) against Streptococcus pneumoniae stood at 3.13 µg/mL (≈ 8.47 µM); against Escherichia coli it was 0.025 µg/mL (≈ 0.0677 µM); with Staphylococcus aureus, 0.39 µg/mL (≈ 1.06 µM); with Pseudomonas aeruginosa, 1.56 µg/mL (≈ 4.22 µM). Besides, inhibition against DNA gyrase was half-maximal at 185 µM (IC50).

For `NC1CCN(c2c(F)cc3c(=O)c(C(=O)O)cn(/C=C\F)c3c2F)C1` (centres undefined), the MIC with Streptococcus pneumoniae worked out at 0.78 µg/mL (≈ 2.21 µM); in the assay on Escherichia coli, 0.05 µg/mL (≈ 0.142 µM); with Staphylococcus aureus it was 0.2 µg/mL (≈ 0.566 µM); against Pseudomonas aeruginosa, 0.39 µg/mL (≈ 1.1 µM).

Consider `CN1CCN(c2c(F)cc3c(=O)c(C(=O)O)cn(/C=C/F)c3c2F)CC1`, for which the MIC with Streptococcus pneumoniae was over 50 µg/mL; against Escherichia coli it was 0.39 µg/mL (≈ 1.06 µM); against Staphylococcus aureus, 12.5 µg/mL (≈ 34 µM); with Pseudomonas aeruginosa, 12.5 µg/mL (≈ 34 µM). It took 1810 µM to reach half-maximal inhibition against DNA gyrase (IC50).

Take `NC1CCN(c2cc3c(cc2F)c(=O)c(C(=O)O)cn3/C=C/F)C1` (centres undefined): the MIC was found to be 6.25 µg/mL (≈ 18.6 µM) in the assay on Streptococcus pneumoniae, 0.2 µg/mL (≈ 0.596 µM) against Escherichia coli, 1.56 µg/mL (≈ 4.65 µM) against Staphylococcus aureus and 3.13 µg/mL (≈ 9.33 µM) in the assay on Pseudomonas aeruginosa.

As for `CN1CCN(c2c(F)cc3c(=O)c(C(=O)O)cn(/C=C\F)c3c2F)CC1`, the MIC with Streptococcus pneumoniae is 3.13 µg/mL (≈ 8.52 µM); with Escherichia coli, 0.025 µg/mL (≈ 0.0681 µM); in the assay on Staphylococcus aureus it was 0.39 µg/mL (≈ 1.06 µM); in the assay with Pseudomonas aeruginosa, 1.56 µg/mL (≈ 4.25 µM). The IC50 (as a rule, the concentration at which inhibition is half-maximal) against DNA gyrase is 197 µM.

For `COc1c(N2CCN(C)CC2)c(F)cc2c(=O)c(C(=O)O)cn(/C=C\F)c12`, the MIC against Streptococcus pneumoniae turned out to be 3.13 µg/mL (≈ 8.25 µM); against Escherichia coli, 0.025 µg/mL (≈ 0.0659 µM); against Staphylococcus aureus, 0.39 µg/mL (≈ 1.03 µM); in the assay with Pseudomonas aeruginosa, 3.13 µg/mL (≈ 8.25 µM).

Consider `O=C(O)c1cn(C2CC2)c2cc(N3CCNCC3)c(F)cc2c1=O` [CIPROFLOXACIN], for which the MIC against Streptococcus pneumoniae was 0.78 µg/mL (≈ 2.35 µM); against Escherichia coli it was at most 0.0063 µg/mL; against Staphylococcus aureus it was 0.2 µg/mL (≈ 0.604 µM); against Pseudomonas aeruginosa, 0.2 µg/mL (≈ 0.604 µM).

As for `CN1CCN(c2cc3c(cc2F)c(=O)c(C(=O)O)cn3/C=C\F)CC1`, the MIC with Streptococcus pneumoniae was 3.13 µg/mL (≈ 8.96 µM); against Escherichia coli it was 0.025 µg/mL (≈ 0.0716 µM); against Staphylococcus aureus, 0.2 µg/mL (≈ 0.573 µM); in the assay with Pseudomonas aeruginosa it was 1.56 µg/mL (≈ 4.47 µM).

Regarding `COc1c(N2CCN(C)CC2)c(F)cc2c(=O)c(C(=O)O)cn(/C=C/F)c12`, the MIC is 50 µg/mL (≈ 132 µM) in the assay with Streptococcus pneumoniae, 0.2 µg/mL (≈ 0.527 µM) against Escherichia coli, 6.25 µg/mL (≈ 16.5 µM) against Staphylococcus aureus and 25 µg/mL (≈ 65.9 µM) against Pseudomonas aeruginosa.

On to `COc1c(N2CCC(N)C2)c(F)cc2c(=O)c(C(=O)O)cn(/C=C\F)c12` (centres undefined), for which the minimal inhibitory concentration (MIC) in the assay with Streptococcus pneumoniae came to 1.56 µg/mL (≈ 4.27 µM); with Escherichia coli it was 0.0125 µg/mL (≈ 0.0342 µM); with Staphylococcus aureus it was 0.39 µg/mL (≈ 1.07 µM); in the assay with Pseudomonas aeruginosa, 1.56 µg/mL (≈ 4.27 µM).

As for `NC1CCN(c2c(F)cc3c(=O)c(C(=O)O)cn(/C=C/F)c3c2F)C1` (centres undefined), the MIC in the assay with Streptococcus pneumoniae turned out to be 12.5 µg/mL (≈ 35.4 µM); in the assay on Escherichia coli, 0.2 µg/mL (≈ 0.566 µM); against Staphylococcus aureus, 3.13 µg/mL (≈ 8.86 µM); against Pseudomonas aeruginosa, 1.56 µg/mL (≈ 4.42 µM).

As to `CN1CCN(c2cc3c(cc2F)c(=O)c(C(=O)O)cn3/C=C/F)CC1`, the MIC with Streptococcus pneumoniae came to 100 µg/mL (≈ 286 µM); in the assay with Escherichia coli, 0.2 µg/mL (≈ 0.573 µM); in the assay with Staphylococcus aureus, 3.13 µg/mL (≈ 8.96 µM); in the assay with Pseudomonas aeruginosa, 6.25 µg/mL (≈ 17.9 µM).

Turning to `COc1c(N2CCC(N)C2)c(F)cc2c(=O)c(C(=O)O)cn(/C=C/F)c12` (centres undefined), the MIC with Streptococcus pneumoniae is 12.5 µg/mL (≈ 34.2 µM); against Escherichia coli, 0.1 µg/mL (≈ 0.274 µM); in the assay on Staphylococcus aureus it was 6.25 µg/mL (≈ 17.1 µM); in the assay with Pseudomonas aeruginosa, 6.25 µg/mL (≈ 17.1 µM).

For `NC1CCN(c2cc3c(cc2F)c(=O)c(C(=O)O)cn3/C=C\F)C1` (centres undefined), the MIC against Streptococcus pneumoniae stood at 3.13 µg/mL (≈ 9.33 µM); against Escherichia coli, 0.05 µg/mL (≈ 0.149 µM); against Staphylococcus aureus, 0.39 µg/mL (≈ 1.16 µM); against Pseudomonas aeruginosa, 0.78 µg/mL (≈ 2.33 µM).
